Measurements: patent US20210137941A1 (ZARODEX THERAPEUTICS LIMITED, priority 2018, published 2021)
Values joined by “and” are separate entries in the source; they are usually repeats but may differ in a detail not shown here. Equal entries are not always repeated. “Also recorded” adds a separate entry of the source.

Experiments:
[1] = in vivo; cited from earlier work
[2] = system: Immunoglobulin levels (IgG, IgA and IgM); assay: First observational study: serum immunoglobulin levels by nephelometry, clozapine vs clozapine-naive patients; format: in vivo, human
[3] = system: splenic B cell and T cell populations; assay: Wild type mouse study: spleen immunophenotyping by flow cytometry; format: in vivo, C57BL/6 mice
[4] = sub-group A: all diagnoses, all smoking, possible secondary causes not excluded, n=123
[5] = sub-group A: all diagnoses, all smoking, possible secondary causes not excluded, n=123, listed as clozapine
[6] = sub-group B: all diagnoses, all smoking, possible secondary causes excluded, n=94
[7] = sub-group C: schizophrenia diagnoses only, secondary causes excluded, n=87
[8] = sub-group D: smokers only, secondary causes excluded, n=57

Structure (SMILES): CN1CCN(C2=Nc3cc(Cl)ccc3Nc3ccccc32)CC1 [Clozapine, clozapine]
- LD50 [1]: 200 mg/kg
- % of patients with Serum IgM <0.3 g/L ([2]; human, in vivo): 12.3%
- concentrations/distribution of IgG, IgA and IgM vs clozapine-naive control group ([2]; human, in vivo): significantly reduced concentrations; also recorded: leftward shift
- association of longer duration of therapy with serum IgG ([2]; p 0.014, not observed with alternative antipsychotic drugs, FIG. 2): lower serum IgG levels
- % of patients with Serum IgA <0.5 g/L (Reference range 0.8-4.0 g/L) [2, 4]: 1.6%
- % of patients with Serum IgA <0.6 g/L [2, 4]: 2.4%
- % of patients with Serum IgA <0.7 g/L [2, 4]: 6.5%
- % of patients with Serum IgA <0.8 g/L (below reference range) [2, 4]: 13.0%
- % of patients with Serum IgG <3 g/L (Reference range 6-16 g/L) [2, 4]: 0.8%
- % of patients with Serum IgG <4 g/L [2, 4]: 1.6%
- % of patients with Serum IgG <5 g/L [2, 4]: 3.3%
- % of patients with Serum IgG <6 g/L (below reference range) [2, 4]: 9.8%
- % of patients with Serum IgM <0.2 g/L (Reference range 0.5-1.9 g/L) [2, 4]: 8.1%
- % of patients with Serum IgM <0.3 g/L [2, 4]: 16.3%
- % of patients with Serum IgM <0.4 g/L [2, 4]: 29.3%
- % of patients with Serum IgM <0.5 g/L (below reference range) [2, 4]: 38.2%
- % of patients with Serum IgA <0.8 g/L (below reference range) [2, 5]: 13.0% and 13.1%
- % of patients with Serum IgG <6 g/L (below reference range) [2, 5]: 9.8%
- % of patients with Serum IgM <0.5 g/L (below reference range) [2, 5]: 38.2%
- % of patients with Serum IgA <0.5 g/L (Reference range 0.8-4.0 g/L) [2, 6]: 2.1%
- % of patients with Serum IgA <0.6 g/L [2, 6]: 2.1%
- % of patients with Serum IgA <0.7 g/L [2, 6]: 6.4%
- % of patients with Serum IgA <0.8 g/L (below reference range) [2, 6]: 13.8%
- % of patients with Serum IgG <3 g/L (Reference range 6-16 g/L) [2, 6]: 1.1%
- % of patients with Serum IgG <4 g/L [2, 6]: 1.1%
- % of patients with Serum IgG <5 g/L [2, 6]: 2.1%
- % of patients with Serum IgG <6 g/L (below reference range) [2, 6]: 8.4%
- % of patients with Serum IgM <0.2 g/L (Reference range 0.5-1.9 g/L) [2, 6]: 5.3%
- % of patients with Serum IgM <0.3 g/L [2, 6]: 12.8%
- % of patients with Serum IgM <0.4 g/L [2, 6]: 26.6%
- % of patients with Serum IgM <0.5 g/L (below reference range) [2, 6]: 34.0%
- % of patients with Serum IgA <0.5 g/L (Reference range 0.8-4.0 g/L) [2, 7]: 2.3%
- % of patients with Serum IgA <0.6 g/L [2, 7]: 3.5%
- % of patients with Serum IgA <0.7 g/L [2, 7]: 6.9%
- % of patients with Serum IgA <0.8 g/L (below reference range) [2, 7]: 14.9%
- % of patients with Serum IgG <3 g/L (Reference range 6-16 g/L) [2, 7]: 1.2%
- % of patients with Serum IgG <4 g/L [2, 7]: 1.2%
- % of patients with Serum IgG <5 g/L [2, 7]: 2.3%
- % of patients with Serum IgG <6 g/L (below reference range) [2, 7]: 9.2%
- % of patients with Serum IgM <0.2 g/L (Reference range 0.5-1.9 g/L) [2, 7]: 5.8%
- % of patients with Serum IgM <0.3 g/L [2, 7]: 12.6%
- % of patients with Serum IgM <0.4 g/L [2, 7]: 27.6%
- % of patients with Serum IgM <0.5 g/L (below reference range) [2, 7]: 35.6%
- % of patients with Serum IgA <0.5 g/L (Reference range 0.8-4.0 g/L) [2, 8]: 3.5%
- % of patients with Serum IgA <0.6 g/L [2, 8]: 3.5%
- % of patients with Serum IgA <0.7 g/L [2, 8]: 3.5%
- % of patients with Serum IgA <0.8 g/L (below reference range) [2, 8]: 10.5%
- % of patients with Serum IgG <3 g/L (Reference range 6-16 g/L) [2, 8]: 1.8%
- % of patients with Serum IgG <4 g/L [2, 8]: 1.8%
- % of patients with Serum IgG <5 g/L [2, 8]: 1.8%
- % of patients with Serum IgG <6 g/L (below reference range) [2, 8]: 8.8%
- % of patients with Serum IgM <0.2 g/L (Reference range 0.5-1.9 g/L) [2, 8]: 1.78%
- % of patients with Serum IgM <0.4 g/L [2, 8]: 26.3%
- % of patients with Serum IgM <0.5 g/L (below reference range) [2, 8]: 33.3%
- admitted to hospital with infection (clozapine group (vs 0.06 controls)): 0.12 per patient year
- Admission frequency in 12-month period, infection-related: admissions (clozapine-treated patients): 15
- Admission frequency in 12-month period, infection-related: patients (clozapine-treated patients): 10 patients
- percentage of splenic B cells (B220+TCR-beta-) of total live splenocytes ([3]; 5 mg/kg and 10 mg/kg IP, 21 days, FIG. 21): significantly lower percentage
- other splenic cell populations (B220-TCR-beta-) ([3]; FIG. 21): No effect
- percentage of splenic T cells ([3]; FIG. 21): reciprocal increase
- splenic follicular B cell subset ([3]; FIG. 22): no specific reductions
- splenic marginal zone B cell subset ([3]; FIG. 22): no specific reductions
- proportion of T2 B cells in the spleen ([3]; across all doses, FIG. 22): small increase
- activated T cells (B220+TCR-beta+) in spleen vs control ([3]; clozapine 2.5-10 mg/kg, haloperidol 1 mg/kg, IP 21 days, FIG. 21): reduced in dose-dependent fashion
- transitional stage 1 (T1) B cells in the spleen ([3]; including at the 2.5 mg/kg dose, FIG. 22): mildly reduced proportion
- germinal centre cells in the spleen vs control or haloperidol ([3]; steady state, FIG. 22): no differences observed
